Experimental data reported in patent publication US9732386B2, “Cell aging as a unique biomarker of major depression” (THE REGENTS OF THE UNIVERSITY OF CALIFORNIA, priority 2010, dated 2017).

System: subjects with Major Depressive Disorder
Assay: Hamilton Depression Rating Scale (HDRS) ratings over 8 weeks of open-label sertraline treatment
Assay type: in vivo, human

## CN[C@H]1CC[C@@H](c2ccc(Cl)c(Cl)c2)c2ccccc21 [sertraline]
Week 8 of sertraline treatment, 50 to max 200 mg per day, 16 depressed subjects, Baseline 18.50±3.65, paired t=5.67, p<0.000
  HDRS ratings, Mean±SD: 10.19±4.62
Over the 8-week course of sertraline treatment, individual subjects
  range of changes in HDRS ratings: 27% worsening to 82% improvement
Over the 8-week course of sertraline treatment, relative to baseline
  mean improvement in HDRS ratings: 42.3±31%
